Assay results taken from patent US6274615A, “Method for delaying the onset of alheimer's disease and for treatment or delaying the onset of other amyloidosis-related diseases/disorders” (South Alabama Medical Science Foundation, priority 1999, dated 2001).
Entries after “also recorded” stand apart in the source; their conditions may differ. Read-outs that look alike come from different tables or passages of the source. Each block holds one compound with its values, some of them ahead of it.

Key:
Aβ1-40 [1] = molecular target: T1, Aβ1-40 (Homo sapiens, UniProt P05067); assay: Circular dichroism spectroscopy of Aβ1-40 (secondary structure); details: for change of random conformation / change of β-sheet content / structural changes (secondary structure): Aβ1-40 250 μM + 100 μM compound; for change of random conformation / change of β-sheet content: time 0; for structural changes (secondary structure): 24 h
T1 construct: aggregates to fibrils
T1 sequence (P05067 672-711): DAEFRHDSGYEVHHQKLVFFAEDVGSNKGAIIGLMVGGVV
Description: (§1) The corresponding percentages of the different secondary structure motifs are shown for Aβ1-40 at time 0 in (FIG. 1C) and 24 hours (FIG. 1D) and for Aβ1-42 at time 0 (FIG. 1G) and 4 hours (FIG. 1H). An average of 40 scans/independent experimental condition was obtained. An independent experiment yielded qualitatively similar data.
(§2) Peptides Aβ1-40 and Aβ1-42 were synthesized in the W. M. Keck Foundation (Yale University, Conn.), and their purity was evaluated by amino acid sequence and laser […] mass spectrometry as described (Soto et al., 1996).
(§3) Spectra in the far ultraviolet light (190-250 nm) were recorded at various time intervals with a Jasco-720 spectropolarimeter as described (Soto et al., 1996) using a cell path of 0.01 cm. […] 40 scans/experimental condition were obtained at 0.2 nm intervals over the wavelength range 190-250 nm. The data were analyzed by the Lincomb algorithm (Perczel et al., 1992) to obtain the percentages of the different secondary structure motifs.

Aβ1-42 [2] = molecular target: T2, Aβ1-42 (Homo sapiens, UniProt P05067); assay: Circular dichroism spectroscopy of Aβ1-42 (secondary structure); details: for amount of β-sheet structures: Aβ1-42 250 μM + melatonin 100 μM; for structural changes (secondary structure): Aβ1-42 250 μM + 100 μM compound, time 0 and 4 h
T2 construct: aggregates to fibrils
T2 sequence (P05067 672-713): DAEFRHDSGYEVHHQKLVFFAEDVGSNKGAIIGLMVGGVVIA
Description: as §1, §2, §3

Aβ1-40 [3] = molecular target: T1, Aβ1-40; assay: Electron microscopy of Aβ1-40 amyloid fibril formation; assay type: biochemical
Source text: Bar is 200 nm. […] EM grids were extensively and carefully examined, and a negative result was only documented when fibrils were totally absent from the grids.

Aβ1-42 [4] = molecular target: T2, Aβ1-42; assay: Electron microscopy of Aβ1-42 amyloid fibril formation; assay type: biochemical
Description: The formation of amyloid fibrils was monitored at 0, 2, and 6 h.

Aβ1-40 [5] = molecular target: T1, Aβ1-40; assay: 1H NMR titration of Aβ1-40 with melatonin (binding)
Description: The solution conditions for the NMR and CD studies were similar, except that deuterated water (D2 O) in phosphate buffer was used in the NMR study. All ^1 H NMR spectra were obtained at 600 MHz using a Varian UnityPlus-600 spectrometer, and the data were processed using the FELIX program (version 95.0, Biosym, Inc.). The NMR solutions were prepared in D2 O (0.6 ml) with sodium phosphate buffer (5 mM, pH 7.5), perdeuterated Na2 EDTA (0.5 mM), NaN3 (0.05 mM), and 3-(trimethylsilyl) propionate-2,2,3,3-d4 (0.05 mM), the last of which serves as a internal chemical shift reference at 0 ppm. The NMR measurements were performed at 10° C. and the residual proton absorption of D2 O was suppressed by low power irradiation during the recycle delay. For all spectra, 128 scans were required with a total recycle delay of 4.2 s, which included an acquisition time and recycle delay of 2.2 and 2.0 s, respectively. The digital resolution of the acquired data was 0.24 Hz/pt, which was reduced to 0.12 Hz/pt by zero-filling the data once before processing. To further improve the resolution, before Fourier transformation spectra were multiplied by a Lorentzian-to-Gaussian weighting factor. This experiment was duplicated on two different days.

[6] = system: cultured neuroblastoma cells; details: cytotoxic fragment of amyloid β-protein; Pappolla et al., 1997; cited from earlier work
[7] = Tan et al., 1993, cited from earlier work
[8] = system: circadian disorders due to jet lag; details: oral, 0.25-10 mg; Arendt et al., 1987; cited from earlier work
calmodulin = details: Benitez-King et al., 1993; cited from earlier work
microtubular components = details: Benitez-King et al., 1993; cited from earlier work
[9] = system: intrinsic cellular antioxidant defenses; details: Huerto-Delgadillo et al., 1994; cited from earlier work
[10] = cited from earlier work
[11] = Aβ1-40, incubated for up to 48 h

change of random conformation (Aβ1-40 [1]): immediate increase
change of β-sheet content (Aβ1-40 [1]): markedly diminished
β-sheet content (Aβ1-40 [1]; Aβ1-40 250 μM + melatonin 100 μM, 24 h of incubation): 24%
amount of β-sheet structures (Aβ1-42 [2]; 4 h of incubation): 59%
amount of β-sheet structures (Aβ1-42 [2]; time 0): 65%
concentration of melatonin inhibiting fibril formation in all tubes (Aβ1-40 [3]; 250 μM Aβ1-40, 48 h): above 10 μM
Aβ1-40 fibril formation (Aβ1-40 [3]; 250 μM Aβ1-40 plus 100 μM melatonin): only amorphous material
Aβ1-42 fibril formation (Aβ1-42 [4]; 250 μM Aβ1-42, 2 and 6 h): only amorphous material
inhibition of Aβ1-42 fibril formation (Aβ1-42 [4]; melatonin 100 nM, 1 μM, 10 μM, 100 μM, and 200 μM): effective to inhibit fibril formation
exchange regime of binding (Aβ1-40 [5]; no line broadening or separate peaks for bound and free states): fast exchange limit
SMILES: COc1ccc2[nH]cc(CCNC(C)=O)c2c1 [melatonin, N-[2-(5-methoxy-1H-indol-3-yl)ethyl] acetamide]
Aβ1-40 fibril formation (Aβ1-40 [3]; [11]): Fibrils were not formed; also recorded: no fibrils were detected
Aβ1-42 fibril formation (Aβ1-42 [4]; 6 hrs., melatonin 100 μm (so in the source)): Well formed amyloid fibrils are easily recognized in FIG. 3A, but not in FIG. 3B
site of binding on Aβ (Aβ1-40 [5]; NMR shifts with varied melatonin concentrations): not localized to a particular His site on Aβ
prevention of cell death [6]: effective in preventing death of cultured neuroblastoma cells
prevention of intracellular Ca^+2 increases [6]: effective in preventing
prevention of oxidative damage [6]: effective in preventing
crossing of the blood-brain barrier [7]: passes easily across the blood-brain barrier; also recorded: crosses the blood-brain barrier with ease
crossing of the blood-brain barrier ([7]; listed as Melatonin): rapidly crosses the blood brain barrier
treatment of circadian disorders due to jet lag [8]: used successfully to treat circadian disorders due to jet lag
interaction with calmodulin (calmodulin): interacts with calmodulin
interaction with microtubular components (microtubular components): interacts
activity of intrinsic cellular antioxidant defenses [9]: increase the activity
lipid solubility [10]: lipid soluble

SMILES: CC(C)(C)[N+]([O-])=Cc1ccccc1 [PBN, N-t-butyl-α-phenylnitrone]
structural changes (secondary structure) (Aβ1-40 [1]): only small effects
change of random conformation (Aβ1-40 [1]): This effect was not observed
change of β-sheet content (Aβ1-40 [1]): This effect was not observed
structural changes (secondary structure) (Aβ1-42 [2]): not elicited
Aβ1-40 fibril formation (Aβ1-40 [3]; [11]): Well formed amyloid fibrils are easily recognized; also recorded: fibrils were abundant and easily identifiable
Aβ1-40 fibril formation (Aβ1-40 [3]; PBN 10, 100, and 200 μM, 48 h): Fibrils were abundant in all these tubes

structural changes (secondary structure) (Aβ1-40 [1]): no structural changes
change of random conformation (Aβ1-40 [1]): This effect was not observed
change of β-sheet content (Aβ1-40 [1]): This effect was not observed
structural changes (secondary structure) (Aβ1-42 [2]): not elicited
SMILES: CC(=O)NCCc1c[nH]c2ccc(O)cc12 [NAT, 5-hydroxy-N-acetyl-tryptamine]
Aβ1-40 fibril formation (Aβ1-40 [3]; [11]): Well formed amyloid fibrils are easily recognized; also recorded: fibrils were abundant and easily identifiable
